From patent US8202857B2, “1,3-oxazepan-2-one and 1,3-diazepan-2-one inhibitors of 11β-hydroxysteroid dehydrogenase 1” (Vitae Pharmaceuticals, Inc., priority 2008, dated 2012) come the findings set out here.

Each structure is given as a SMILES string. A value given as a limit tells only on which side of the number the result lay.

The target in the assay is T1, human 11β-HSD1 (Homo sapiens, UniProt P28845).
T1 construct: expressed in transfected cells; host or cells: CHO cells (microsomes)
As to the kind of experiment: Inhibition of a microsomal preparation of 11β-HSD1 (SPA), Biological Test Example 1. Particulars: microsomes from CHO cells overexpressing human 11β-HSD1; for IC50: read-out: IC50 Range^a; for inhibition at 0.1 µM: read-out: Average % inhibition at 100 nM, 100 nM; for Average % inhibition at 100 nM: 0.1 µM. It counts as biochemical. The procedure:
All reactions were carried out at rt in 96 well clear flexible PET Microbeta plates (PerkinElmer). […] After a 10 minute pre-incubation, 50 μL of enzyme solution containing microsomes isolated from CHO cells overexpressing human 11β-HSD1 (10-20 μg/ml of total protein) was added, and the plates were incubated for 90 minutes at rt. The reaction was stopped by adding 50 μl of the SPA beads suspension containing 10 μM 18β-glycyrrhetinic acid, 5 mg/ml protein A coated YSi SPA beads (GE Healthcare) and 3.3 μg/ml of anti-cortisol antibody (East Coast Biologics) in Superblock buffer (Bio-Rad). The plates were shaken for 120 minutes at rt, and the SPA signal corresponding to [^3H]cortisol was measured on a Microbeta plate reader.

T1 sequence (P28845 whole entry): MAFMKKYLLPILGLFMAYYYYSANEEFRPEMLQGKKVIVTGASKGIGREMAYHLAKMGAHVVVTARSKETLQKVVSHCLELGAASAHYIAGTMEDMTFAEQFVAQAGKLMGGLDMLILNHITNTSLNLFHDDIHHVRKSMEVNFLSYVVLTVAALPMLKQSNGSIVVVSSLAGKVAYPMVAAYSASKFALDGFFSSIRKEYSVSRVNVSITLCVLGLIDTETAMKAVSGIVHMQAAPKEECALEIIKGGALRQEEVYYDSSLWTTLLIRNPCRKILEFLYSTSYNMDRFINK

Usually IC50 stands for the concentration needed to halve the response being measured. The term inhibition denotes the relative decrease from the control value, in per cent. In the case of `C=CC[C@]1(c2ccccc2)CCCN([C@@H](C)c2ccc(Br)cc2)C(=O)N1` (single isomer, unassigned) [EXAMPLE 2 Isomer 2], the IC50 is below 100 nM and the inhibition at 0.1 µM came to 96.2%.

On to `C[C@@H](c1ccc(Br)cc1)N1CCC[C@@](CCO)(c2ccccc2)NC1=O` (single isomer, unassigned) [EXAMPLE 3 Isomer 1], for which the “Average % inhibition at 100 nM” value amounted to 85.8% and the half-maximal inhibitory concentration (IC50) is below 100 nM.

Turning to `C[C@@H](c1ccc(Br)cc1)N1CCC[C@](CCO)(c2ccccc2)NC1=O` (single isomer, unassigned) [EXAMPLE 3 Isomer 2], the IC50 is below 100 nM and the inhibition at 0.1 µM was 97.6%.

`C=C(C)C[C@]1(c2ccccc2)CCCN([C@@H](C)c2ccc(Br)cc2)C(=O)O1` (single isomer, unassigned) [EXAMPLE 14 Isomer 1]: the concentration for half-maximal inhibition (IC50) is below 100 nM and the inhibition at 0.1 µM was determined as 97.4%.

`C=C(C)C[C@@]1(c2ccccc2)CCCN([C@@H](C)c2ccc(Br)cc2)C(=O)O1` (single isomer, unassigned) [EXAMPLE 14 Isomer 2]: the half-inhibitory concentration (IC50) was below 100 nM and the inhibition at 0.1 µM was determined as 111%.

With `C[C@@H](c1ccc(Br)cc1)N1CCC[C@](CC(C)(C)O)(c2ccccc2)OC1=O` (single isomer, unassigned) [EXAMPLE 15 Isomer 1], the IC50 was below 100 nM and the inhibition at 0.1 µM was determined as 86.2%.

`C[C@@H](c1ccc(Br)cc1)N1CCC[C@@](CC(C)(C)O)(c2ccccc2)OC1=O` (single isomer, unassigned) [EXAMPLE 15 Isomer 2]: the IC50 was above 100 nM and the inhibition at 0.1 µM was 31.7%.

On to `C[C@@H](c1ccc(O)cc1)N1CCCC(CC(C)(C)O)(c2ccccc2)OC1=O` (single isomer, unassigned) [EXAMPLE 17 Isomer 1], for which the “Average % inhibition at 100 nM” value was determined as 41.6% and the 50% inhibitory concentration (IC50) is above 100 nM.

Consider `C[C@@H](c1ccc(O)cc1)N1CCCC(CC(C)(C)O)(c2ccccc2)OC1=O` (single isomer, unassigned) [EXAMPLE 17 Isomer 2], for which the “Average % inhibition at 100 nM” value came out at 68.5% and the concentration for half-maximal inhibition (IC50) was below 100 nM.

Take `C[C@@H](c1ccc(Br)cc1)N1CCC[C@](CCCO)(c2ccccc2)NC1=O` [EXAMPLE 1, (S)-1-((S)-1-(4-bromophenyl)ethyl)-4-(3-hydroxypropyl)-4-phenyl-1,3-diazepan-2-one]: the 50% inhibitory concentration (IC50) was below 100 nM and the inhibition at 0.1 µM turned out to be 95.6%.

For the compound `CC(O)C[C@]1(c2ccccc2)CCCN([C@@H](C)c2ccc(Br)cc2)C(=O)N1` (stereo partly drawn) [EXAMPLE 4, (4S)-1-((S)-1-(4-bromophenyl)ethyl)-4-(2-hydroxypropyl)-4-phenyl-1,3-diazepan-2-one], the IC50 was below 100 nM and the inhibition at 0.1 µM amounted to 95.8%.

Consider `C[C@@H](c1ccc(Br)cc1)N1CCC[C@](CCC(N)=O)(c2ccccc2)NC1=O` [EXAMPLE 5, 3-((S)-1-((S)-1-(4-bromophenyl)ethyl)-2-oxo-4-phenyl-1,3-diazepan-4-yl)propanamide], for which the IC50 was below 100 nM and the inhibition at 0.1 µM came to 93.7%.

As for `COc1ccc(-c2ccc([C@H](C)N3CCC[C@](CCO)(c4ccccc4)NC3=O)cc2)cn1` [EXAMPLE 6, (S)-4-(2-hydroxyethyl)-1-((S)-1-(4-(6-methoxypyridin-3-yl)phenyl)ethyl)-4-phenyl-1,3-diazepan-2-one], the IC50 was below 100 nM and the inhibition at 0.1 µM was determined as 95.5%.

Regarding `C=C(C)C[C@]1(c2ccccc2)CCCN([C@@H](C)c2ccc(Br)cc2)C(=O)N1` [EXAMPLE 7, (S)-1-((S)-1-(4-bromophenyl)ethyl)-4-(2-methylallyl)-4-phenyl-1,3-diazepan-2-one], the half-inhibitory concentration (IC50) was below 100 nM and the inhibition at 0.1 µM worked out at 93%.

In the case of `C[C@@H](c1ccc(Br)cc1)N1CCC[C@](CC(C)(C)O)(c2ccccc2)NC1=O` [EXAMPLE 8, (S)-1-((S)-1-(4-bromophenyl)ethyl)-4-(2-hydroxy-2-methylpropyl)-4-phenyl-1,3-diazepan-2-one], the IC50 is below 100 nM and the inhibition at 0.1 µM is 97.5%.

Consider `C=C(C)C[C@]1(c2ccccc2)CCCN([C@@H](C)c2ccc(-c3ccn(C)c(=O)c3)cc2)C(=O)N1` [EXAMPLE 9, (S)-1-((S)-1-(4-(1-methyl-2-oxo-1,2-dihydropyridin-4-yl)phenyl)ethyl)-4-(2-methylallyl)-4-phenyl-1,3-diazepan-2-one], for which the concentration for half-maximal inhibition (IC50) was below 100 nM and the inhibition at 0.1 µM is 95.2%.

With `C=C(C)C[C@]1(c2ccccc2)CCCN([C@@H](C)c2ccc(-c3ccc(=O)n(C)c3)cc2)C(=O)N1` [EXAMPLE 10, (S)-1-((S)-1-(4-(1-methyl-6-oxo-1,6-dihydropyridin-3-yl)phenyl)ethyl)-4-(2-methylallyl)-4-phenyl-1,3-diazepan-2-one], the IC50 is below 100 nM and the inhibition at 0.1 µM is 97.1%.

On to `C[C@@H](c1ccc(-c2ccn(C)c(=O)c2)cc1)N1CCC[C@](CC(C)(C)O)(c2ccccc2)NC1=O` [EXAMPLE 11, (S)-4-(2-hydroxy-2-methylpropyl)-1-((S)-1-(4-(1-methyl-2-oxo-1,2-dihydropyridin-4-yl)phenyl)ethyl)-4-phenyl-1,3-diazepan-2-one], for which the IC50 was below 100 nM and the inhibition at 0.1 µM was 98.3%.

For the compound `C[C@@H](c1ccc(-c2ccc(=O)n(C)c2)cc1)N1CCC[C@](CC(C)(C)O)(c2ccccc2)NC1=O` [EXAMPLE 12, (S)-4-(2-hydroxy-2-methylpropyl)-1-((S)-1-(4-(1-methyl-6-oxo-1,6-dihydropyridin-3-yl)phenyl)ethyl)-4-phenyl-1,3-diazepan-2-one], the half-maximal inhibitory concentration (IC50) was below 100 nM and the inhibition at 0.1 µM worked out at 92.9%.

As for `C[C@@H](c1ccc(-c2ccn(C3CC3)c(=O)c2)cc1)N1CCC[C@](CC(C)(C)O)(c2ccccc2)NC1=O` [EXAMPLE 13, (S)-1-((S)-1-(4-(1-cyclopropyl-2-oxo-1,2-dihydropyridin-4-yl)phenyl)ethyl)-4-(2-hydroxy-2-methylpropyl)-4-phenyl-1,3-diazepan-2-one], the 50% inhibitory concentration (IC50) is below 100 nM and the inhibition at 0.1 µM was 94.2%.

Turning to `C[C@@H](c1ccc(-c2ccn(C3CC3)c(=O)c2)cc1)N1CCC[C@](CC(C)(C)O)(c2ccccc2)OC1=O` [EXAMPLE 18, (S)-3-((S)-1-(4-(1-cyclopropyl-2-oxo-1,2-dihydropyridin-4-yl)phenyl)ethyl)-7-(2-hydroxy-2-methylpropyl)-7-phenyl-1,3-oxazepan-2-one], the half-inhibitory concentration (IC50) is below 100 nM and the inhibition at 0.1 µM stood at 86.8%.

Consider `C[C@@H](c1ccc(-c2ccn(C)c(=O)c2)cc1)N1CCC[C@](CC(C)(C)O)(c2ccccc2)OC1=O` [EXAMPLE 19, (S)-7-(2-hydroxy-2-methylpropyl)-3-((S)-1-(4-(1-methyl-2-oxo-1,2-dihydropyridin-4-yl)phenyl)ethyl)-7-phenyl-1,3-oxazepan-2-one], for which the IC50 was below 100 nM and the inhibition at 0.1 µM is 80.3%.

As for `C[C@@H](c1ccc(-c2ccc(=O)n(C3CC3)c2)cc1)N1CCC[C@](CC(C)(C)O)(c2ccccc2)NC1=O` [EXAMPLE 20, (S)-1-((S)-1-(4-(1-cyclopropyl-6-oxo-1,6-dihydropyridin-3-yl)phenyl)ethyl)-4-(2-hydroxy-2-methylpropyl)-4-phenyl-1,3-diazepan-2-one], the IC50 is below 100 nM and the inhibition at 0.1 µM is 97.4%.
